# Measurements taken from US20100323990A1, “SHIP 1 MODULATOR PRODRUGS” (THE UNIVERSITY OF BRITISH COLUMBIA, priority 2006, published 2010).
# Tests used:
# wild-type SHIP = experiment: Scintillation proximity assay, wild-type SHIP; type: binding; conditions: SPA beads
# Protocol: (§1) Compound 100 was radiolabelled with tritium by GE Healthcare (Piscataway, N.J.) to a specific activity of 42 Ci/mmole. Copper chelate (His-Tag) YSi SPA Scintillation Beads (GE ealthcare, Piscataway, N.J.) were diluted in 0.25% BSA/TBS to 1.5 mg/mL and recombinant, His6-tagged protein added at the indicated concentrations: wild-type (1 pM), ΔC2 SHIP enzyme (1 pM) or C2 domain (10 nM). Protein was allowed to bind 1 h at 23° C., and 250 μg of beads were aliquoted per well of a 96-well plate. 5 μCi of [^3H]-Compound 100 was added per well, the plate gently agitated for 30 min and the amount of bead associated radioactivity quantified by counting in a Wallac BetaPlate plate scintillation counter.
# (§2) Isolated recombinant, His6-tagged C2 domain was expressed and its PI-3,4-P2 binding ability was determined using protein lipid overlay assays. Purified C2 domain was incubated with membrane strips spotted with PI-3,4-P2 and bound protein detected using an anti-His6 antibody. As shown in FIG. 11C the C2 domain bound PI-3,4-P2 and this binding was inhibited by Compound 100, consistent with both Compound 100 and PI-3,4-P2 interacting with the C2 domain at a common binding site.
# ΔC2 SHIP = biological target: T1, ΔC2 SHIP (Homo sapiens, UniProt Q92835, DEL725-863); experiment: Scintillation proximity assay, SHIP lacking its C2 domain; type: binding; conditions: SPA beads
# T1 construct: His6; made in house; host or cells: mammalian expression vector pME18S
# T1 sequence (Q92835 with tags, fused parts or gaps DEL725-863): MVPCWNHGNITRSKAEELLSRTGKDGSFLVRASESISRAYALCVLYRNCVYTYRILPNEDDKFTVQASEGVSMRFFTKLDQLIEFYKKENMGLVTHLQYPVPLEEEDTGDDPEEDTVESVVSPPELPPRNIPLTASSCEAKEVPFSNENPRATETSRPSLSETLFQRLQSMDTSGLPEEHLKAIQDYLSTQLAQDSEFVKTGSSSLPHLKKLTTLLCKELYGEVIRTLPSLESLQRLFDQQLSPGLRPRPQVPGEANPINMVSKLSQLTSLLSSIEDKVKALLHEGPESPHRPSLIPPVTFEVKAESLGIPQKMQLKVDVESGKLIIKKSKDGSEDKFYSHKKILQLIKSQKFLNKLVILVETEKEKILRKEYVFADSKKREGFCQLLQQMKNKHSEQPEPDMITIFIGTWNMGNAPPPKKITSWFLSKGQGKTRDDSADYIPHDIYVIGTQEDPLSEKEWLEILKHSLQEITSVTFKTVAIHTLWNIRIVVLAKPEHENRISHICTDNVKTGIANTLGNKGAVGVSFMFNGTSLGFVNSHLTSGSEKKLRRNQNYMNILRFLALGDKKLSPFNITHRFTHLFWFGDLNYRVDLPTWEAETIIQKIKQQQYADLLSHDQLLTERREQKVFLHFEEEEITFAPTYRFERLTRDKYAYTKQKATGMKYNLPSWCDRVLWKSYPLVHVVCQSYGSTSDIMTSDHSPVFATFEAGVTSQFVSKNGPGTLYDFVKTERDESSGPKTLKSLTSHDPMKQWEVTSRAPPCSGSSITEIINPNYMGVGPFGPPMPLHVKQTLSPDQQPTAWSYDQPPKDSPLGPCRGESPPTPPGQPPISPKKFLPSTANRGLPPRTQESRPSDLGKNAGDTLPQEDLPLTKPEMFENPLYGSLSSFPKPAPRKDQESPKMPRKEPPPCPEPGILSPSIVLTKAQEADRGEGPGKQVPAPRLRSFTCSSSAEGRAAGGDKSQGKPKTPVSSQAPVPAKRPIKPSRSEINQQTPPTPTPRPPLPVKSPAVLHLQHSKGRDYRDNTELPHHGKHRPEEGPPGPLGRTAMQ
# Protocol: as §1, §2
smiles,measurement,setting,value
Cc1cc(O)cc2c1[C@]1(C)CCC3C(C)(C)CCC[C@]3(C)[C@H]1C2 (some centres unmarked) [Compound 100],binding of [3H]-Compound 100 to wild-type SHIP,wild-type SHIP,bound to wild-type SHIP
same,binding of [3H]-Compound 100 to SHIP lacking its C2 domain,ΔC2 SHIP,not to SHIP lacking its C2 domain
